Reference: patent US7022716B2, “Cyclic amine phenyl beta-3 adrenergic receptor agonists” (Wyeth, priority 2000, dated 2006)

Tests used:
β3 Knockout(KO) Mice = assay: Thermogenesis (Oxymax indirect calorimetry) in β3 knockout mice; conditions: percent increase in thermogenesis over baseline; female FVB β3 knockout mice; i.p. 0.1-20 mg/kg or oral 1.0-30 mg/kg
β3 Transgenic(Tg) Mice = assay: Thermogenesis (Oxymax indirect calorimetry) in β3 transgenic mice; conditions: percent increase in thermogenesis over baseline; female FVB β3 transgenic mice; i.p. 0.1-20 mg/kg or oral 1.0-30 mg/kg
[1] = biological target: T1, human β3 adrenergic receptor (Homo sapiens, UniProt P13945); assay: cAMP (SPA) response in CHO cells transfected with human β3 adrenergic receptor; format: cell-based; design: key: fraction of maximal isoproterenol (10^-5 M) response; conditions: maximal response relative to maximal response of isoproterenol at 10^-5 M
T1 construct: Full length β3 AR clones (402 amino acids) containing the last 6 amino acids of hβ3-AR are prepared; expressed in transfected cells; host or cells: CHO (Chinese hamster ovary) cells
Method in brief: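 Reactions were stopped with 0.2N HCl and neutralised, and cAMP was measured by SPA. Activity is expressed as percent of the maximal 10^−5 M isoproterenol response.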

T1 sequence (P13945 whole entry): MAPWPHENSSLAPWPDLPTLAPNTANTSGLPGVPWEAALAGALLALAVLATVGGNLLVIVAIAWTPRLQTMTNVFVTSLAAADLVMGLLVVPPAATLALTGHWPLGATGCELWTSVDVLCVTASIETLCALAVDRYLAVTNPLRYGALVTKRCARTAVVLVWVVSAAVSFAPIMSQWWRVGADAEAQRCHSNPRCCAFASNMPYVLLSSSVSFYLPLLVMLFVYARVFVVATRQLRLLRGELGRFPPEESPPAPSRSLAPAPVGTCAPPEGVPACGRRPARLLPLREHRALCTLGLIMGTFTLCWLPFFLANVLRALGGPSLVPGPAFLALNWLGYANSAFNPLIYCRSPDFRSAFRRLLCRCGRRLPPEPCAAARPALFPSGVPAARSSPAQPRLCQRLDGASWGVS

| Structure (SMILES) | melting point | IA(β3) [1] | Thermogenesis (KO mice) (β3 Knockout(KO) Mice) [%] | Thermogenesis (Tg mice) (β3 Transgenic(Tg) Mice) [%] |
| --- | --- | --- | --- | --- |
| CS(=O)(=O)Nc1cc(C(O)CNC2CCN(c3ccc(CC4SC(=O)NC4=O)cc3)CC2)ccc1O [Example 84, N-[5-((2R)-2-{1-[4-(2,4-Dioxo-thiazolidin-5-ylmethyl}-phenyl]-piperidin-4-ylamino}-1-hydroxy-ethyl)-2-hydroxy-phenyl]-methanesulfonamide] | > 180 °C (dec.) | – | −2 ± 4 | 30 ± 4 |
| CCOC(=O)c1ccc(N2CCC(NC[C@H](O)c3ccc(O)c(NS(C)(=O)=O)c3)CC2)cc1 [Example 180, {4-[(2R)-2-Hydroxy-2-(4-hydroxy-3-methanesulfonylamino-phenyl)-ethylamino]-piperidin-1-yl}-benzoic acid ethyl ester] | – | 1 | 9 ± 5 | 42 ± 4 |
| CCOC(=O)C(=Cc1ccc(N2CCC(NC[C@H](O)c3ccc(O)c(NS(C)(=O)=O)c3)CC2)cc1)C(=O)O [Example 189, 2-(4-{4-[(2R)-2-Hydroxy-2-(4-hydroxy-3-methanesulfonylamino-phenyl)-ethylamino]-piperidin-1-yl}-benzylidene)-malonic acid monoethyl ester] | > 170 °C (dec.) | 1.3 | 6 ± 3 | 33 ± 7 |

The next lines start with results.

| melting point | IA(β3) [1] | Structure (SMILES) | Thermogenesis (KO mice) (β3 Knockout(KO) Mice) [%] | Thermogenesis (Tg mice) (β3 Transgenic(Tg) Mice) [%] |
| --- | --- | --- | --- | --- |
| > 85 °C (dec.) | 1.1 | CS(=O)(=O)Nc1cc([C@@H](O)CNC2CCN(c3ccc(C(=O)O)cc3)CC2)ccc1O [Example 186, 4-{4-[(2R)-2-Hydroxy-2-(4-hydroxy-3-methanesulfonylamino-phenyl)-ethylamino]-piperidin-1-yl}-benzoic acid] | 16 ± 7 | 77 ± 12 |
| 104 to 113 °C | 1.3 | CS(=O)(=O)Nc1cc([C@@H](O)CNC2CCN(c3ccc(NC(=O)c4ccc5c(c4)OCO5)cc3)CC2)ccc1O [Example 394, N-(4-{4-[((2R)-2-Hydroxy-2-{4-hydroxy-3-[(methylsulfonyl)amino]phenyl}ethyl)amino]-1-piperidinyl}phenyl)-1,3-benzodioxole-5-carboxamide] | – | – |
